The NIST ThermoML archive (doi:10.1021/je501041r)

Test: xn = mol fraction of the nth substance listed
Details: 101 kPa, Liquid; for viscosity: Capillary tube (Ostwald / Ubbelohde) method; for mass density: Vibrating tube method

CC(C)CC(C)(C)C [2,2,4-trimethylpentane] + CCCO
Details | mass density [kg/m3] | viscosity [mPa·s]
298.15 K, x1 = 0.02 | 795.39 | –
298.15 K, x1 = 0.04 | 790.82 | –
298.15 K, x1 = 0.06 | 786.22 | –
298.15 K, x1 = 0.1 | 777.82 | 1.518
298.15 K, x1 = 0.2 | 759.71 | 1.231
298.15 K, x1 = 0.3 | 744.88 | 1.007
298.15 K, x1 = 0.4 | 732.42 | 0.84
298.15 K, x1 = 0.4999 | 721.93 | 0.718
298.15 K, x1 = 0.5996 | 712.88 | 0.644
298.15 K, x1 = 0.6998 | 704.9 | 0.572
298.15 K, x1 = 0.7995 | 698.16 | 0.519
298.15 K, x1 = 0.9 | 692.36 | 0.491
298.15 K, x1 = 1 | 687.82 | 0.478
303.15 K, x1 = 0.02 | 791.36 | –
303.15 K, x1 = 0.04 | 786.77 | –
303.15 K, x1 = 0.06 | 782.15 | –
303.15 K, x1 = 0.1 | 773.72 | 1.361
303.15 K, x1 = 0.2 | 755.54 | 1.113
303.15 K, x1 = 0.3 | 740.67 | 0.909
303.15 K, x1 = 0.4 | 728.17 | 0.769
303.15 K, x1 = 0.4999 | 717.66 | 0.664
303.15 K, x1 = 0.5996 | 708.61 | 0.585
303.15 K, x1 = 0.6998 | 700.62 | 0.531
303.15 K, x1 = 0.7995 | 693.9 | 0.488
303.15 K, x1 = 0.9 | 688.13 | 0.464
303.15 K, x1 = 1 | 683.68 | 0.453
308.15 K, x1 = 0.02 | 787.26 | –
308.15 K, x1 = 0.04 | 782.66 | –
308.15 K, x1 = 0.06 | 778.03 | –
308.15 K, x1 = 0.1 | 769.57 | 1.223
308.15 K, x1 = 0.2 | 751.33 | 1.004
308.15 K, x1 = 0.3 | 736.41 | 0.831
308.15 K, x1 = 0.4 | 723.88 | 0.709
308.15 K, x1 = 0.4999 | 713.35 | 0.613
308.15 K, x1 = 0.5996 | 704.28 | 0.543
308.15 K, x1 = 0.6998 | 696.31 | 0.5
308.15 K, x1 = 0.7995 | 689.61 | 0.46
308.15 K, x1 = 0.9 | 683.86 | 0.438
308.15 K, x1 = 1 | 679.52 | 0.429
313.15 K, x1 = 0.02 | 783.12 | –
313.15 K, x1 = 0.04 | 778.51 | –
313.15 K, x1 = 0.06 | 773.86 | –
313.15 K, x1 = 0.1 | 765.38 | 1.1
313.15 K, x1 = 0.2 | 747.08 | 0.92
313.15 K, x1 = 0.3 | 732.1 | 0.758
313.15 K, x1 = 0.4 | 719.54 | 0.648
313.15 K, x1 = 0.4999 | 708.99 | 0.569
313.15 K, x1 = 0.5996 | 699.91 | 0.51
313.15 K, x1 = 0.6998 | 691.95 | 0.467
313.15 K, x1 = 0.7995 | 685.26 | 0.434
313.15 K, x1 = 0.9 | 679.55 | 0.414
313.15 K, x1 = 1 | 675.32 | 0.408
318.15 K, x1 = 0.02 | 778.94 | –
318.15 K, x1 = 0.04 | 774.31 | –
318.15 K, x1 = 0.06 | 769.64 | –
318.15 K, x1 = 0.1 | 761.14 | 0.994
318.15 K, x1 = 0.2 | 742.76 | 0.833
318.15 K, x1 = 0.3 | 727.73 | 0.693
318.15 K, x1 = 0.4 | 715.13 | 0.596
318.15 K, x1 = 0.4999 | 704.58 | 0.529
318.15 K, x1 = 0.5996 | 695.48 | 0.479
318.15 K, x1 = 0.6998 | 687.53 | 0.439
318.15 K, x1 = 0.7995 | 680.87 | 0.41
318.15 K, x1 = 0.9 | 675.2 | 0.393
318.15 K, x1 = 1 | 671.1 | 0.388
323.15 K, x1 = 0.02 | 774.7 | –
323.15 K, x1 = 0.04 | 770.05 | –
323.15 K, x1 = 0.06 | 765.36 | –
323.15 K, x1 = 0.1 | 756.84 | 0.903
323.15 K, x1 = 0.2 | 738.39 | 0.767
323.15 K, x1 = 0.3 | 723.3 | 0.648
323.15 K, x1 = 0.4 | 710.67 | 0.554
323.15 K, x1 = 0.4999 | 700.11 | 0.491
323.15 K, x1 = 0.5996 | 691 | 0.445
323.15 K, x1 = 0.6998 | 683.07 | 0.413
323.15 K, x1 = 0.7995 | 676.44 | 0.388
323.15 K, x1 = 0.9 | 670.81 | 0.373
323.15 K, x1 = 1 | 666.85 | 0.369

CCCCCCCO [heptan-1-ol] + CC(C)CC(C)(C)C
Details | mass density [kg/m3] | viscosity [mPa·s]
298.15 K, x2 = 0 | 818.82 | 6.004
298.15 K, x2 = 0.1003 | 804.69 | 4.442
298.15 K, x2 = 0.2002 | 790.62 | 3.258
298.15 K, x2 = 0.3002 | 776.7 | 2.408
298.15 K, x2 = 0.3999 | 763.07 | 1.793
298.15 K, x2 = 0.5 | 749.79 | 1.349
298.15 K, x2 = 0.6 | 736.64 | 1.059
298.15 K, x2 = 0.6999 | 723.94 | 0.827
298.15 K, x2 = 0.7999 | 711.51 | 0.672
298.15 K, x2 = 0.8999 | 699.33 | 0.557
298.15 K, x2 = 0.92 | 697.03 | –
298.15 K, x2 = 0.94 | 694.61 | –
298.15 K, x2 = 0.9599 | 692.3 | –
303.15 K, x2 = 0 | 815.3 | 5.079
303.15 K, x2 = 0.1003 | 801.1 | 3.807
303.15 K, x2 = 0.2002 | 786.96 | 2.834
303.15 K, x2 = 0.3002 | 772.96 | 2.126
303.15 K, x2 = 0.3999 | 759.26 | 1.597
303.15 K, x2 = 0.5 | 745.92 | 1.224
303.15 K, x2 = 0.6 | 732.7 | 0.988
303.15 K, x2 = 0.6999 | 719.94 | 0.782
303.15 K, x2 = 0.7999 | 707.45 | 0.627
303.15 K, x2 = 0.8999 | 695.21 | 0.524
303.15 K, x2 = 0.92 | 692.88 | –
303.15 K, x2 = 0.94 | 690.48 | –
303.15 K, x2 = 0.9599 | 688.17 | –
308.15 K, x2 = 0 | 811.75 | 4.374
308.15 K, x2 = 0.1003 | 797.48 | 3.283
308.15 K, x2 = 0.2002 | 783.26 | 2.518
308.15 K, x2 = 0.3002 | 769.2 | 1.881
308.15 K, x2 = 0.3999 | 755.43 | 1.437
308.15 K, x2 = 0.5 | 742.02 | 1.13
308.15 K, x2 = 0.6 | 728.74 | 0.913
308.15 K, x2 = 0.6999 | 715.91 | 0.714
308.15 K, x2 = 0.7999 | 703.35 | 0.587
308.15 K, x2 = 0.8999 | 691.05 | 0.496
308.15 K, x2 = 0.92 | 688.71 | –
308.15 K, x2 = 0.94 | 686.3 | –
308.15 K, x2 = 0.9599 | 683.98 | –
313.15 K, x2 = 0 | 808.17 | 3.8
313.15 K, x2 = 0.1003 | 793.83 | 2.875
313.15 K, x2 = 0.2002 | 779.54 | 2.217
313.15 K, x2 = 0.3002 | 765.4 | 1.679
313.15 K, x2 = 0.3999 | 751.57 | 1.298
313.15 K, x2 = 0.5 | 738.08 | 1.018
313.15 K, x2 = 0.6 | 724.74 | 0.825
313.15 K, x2 = 0.6999 | 711.84 | 0.67
313.15 K, x2 = 0.7999 | 699.22 | 0.55
313.15 K, x2 = 0.8999 | 686.85 | 0.465
313.15 K, x2 = 0.92 | 684.51 | –
313.15 K, x2 = 0.94 | 682.09 | –
313.15 K, x2 = 0.9599 | 679.77 | –
318.15 K, x2 = 0 | 804.57 | 3.224
318.15 K, x2 = 0.1003 | 790.15 | 2.503
318.15 K, x2 = 0.2002 | 775.79 | 1.979
318.15 K, x2 = 0.3002 | 761.58 | 1.501
318.15 K, x2 = 0.3999 | 747.67 | 1.176
318.15 K, x2 = 0.5 | 734.12 | 0.934
318.15 K, x2 = 0.6 | 720.71 | 0.758
318.15 K, x2 = 0.6999 | 707.74 | 0.623
318.15 K, x2 = 0.7999 | 695.05 | 0.517
318.15 K, x2 = 0.8999 | 682.63 | 0.439
318.15 K, x2 = 0.92 | 680.27 | –
318.15 K, x2 = 0.94 | 677.84 | –
318.15 K, x2 = 0.9599 | 675.52 | –
323.15 K, x2 = 0 | 800.93 | 2.851
323.15 K, x2 = 0.1003 | 786.43 | 2.209
323.15 K, x2 = 0.2002 | 772 | 1.754
323.15 K, x2 = 0.3002 | 757.71 | 1.351
323.15 K, x2 = 0.3999 | 743.74 | 1.071
323.15 K, x2 = 0.5 | 730.12 | 0.859
323.15 K, x2 = 0.6 | 716.64 | 0.699
323.15 K, x2 = 0.6999 | 703.6 | 0.592
323.15 K, x2 = 0.7999 | 690.85 | 0.487
323.15 K, x2 = 0.8999 | 678.37 | 0.416
323.15 K, x2 = 0.92 | 675.99 | –
323.15 K, x2 = 0.94 | 673.57 | –
323.15 K, x2 = 0.9599 | 671.24 | –
